This passage reports TGI results from PubChem BioAssay (NCI).

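Interpolation was linear, between the two tested concentrations surrounding the appropriate level; five concentrations were tested over 48 hours in 96-well plates. Definition used: TGI = concentration required for complete inhibition of growth.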

Among the test systems are A549 NSCLC; CAKI-1 renal; EKVX NSCLC; IGROV1 ovarian; MDA-MB-231 breast; MDA-MB-435; NCI/ADR-RES ovarian; SF-268 CNS; SNB-19 CNS; T-47D breast.
Experiment in all cases: NCI anticancer screen, dose series, 48 h

With `CCN(CC)c1ccc2cc(-c3csc(-c4ccc(N(C)C)cc4)n3)c(=O)oc2c1`, the TGI with A549 NSCLC, with CAKI-1 renal, in the assay with EKVX NSCLC, in the assay with IGROV1 ovarian, in the assay with MDA-MB-231 breast and in the assay with MDA-MB-435 was greater than 100 µM in each case. Further, the TGI in the assay on NCI/ADR-RES ovarian, in the assay with SF-268 CNS, with SNB-19 CNS and in the assay on T-47D breast was greater than 100 µM throughout.
On to `COc1cccc(-c2cc(=O)c3cc(N4CCCC4)ccc3[nH]2)c1`, for which the TGI in the assay on A549 NSCLC is greater than 10 µM; in the assay with CAKI-1 renal it was greater than 10 µM; in the assay on EKVX NSCLC, greater than 10 µM; in the assay with IGROV1 ovarian it was greater than 10 µM; in the assay with MDA-MB-231 breast, 0.598 µM; in the assay with MDA-MB-435, less than 0.001 µM. Further, the TGI in the assay with NCI/ADR-RES ovarian was less than 0.001 µM; in the assay on SF-268 CNS it was greater than 10 µM; with SNB-19 CNS, less than 0.001 µM; in the assay with T-47D breast, greater than 10 µM.
For `CCOC(=O)C(C(=O)OCC)C(NC(=O)Nc1cc(C(F)(F)F)ccc1OC)(C(F)(F)F)C(F)(F)F`, the TGI is greater than 100 µM with A549 NSCLC; 91.5 µM in the assay on CAKI-1 renal; greater than 100 µM in the assay with EKVX NSCLC; 96.9 µM with IGROV1 ovarian; 39.7 µM in the assay with MDA-MB-231 breast; 43.8 µM in the assay with MDA-MB-435. For the same molecule, the TGI in the assay with NCI/ADR-RES ovarian was 75.9 µM; in the assay with SF-268 CNS, greater than 100 µM; in the assay on SNB-19 CNS it was greater than 100 µM; in the assay on T-47D breast it was greater than 100 µM.
Turning to `NNC(=O)CSc1nnc(CCCCCCCCc2nnc(SCC(=O)NN)o2)o1`, the TGI with A549 NSCLC, in the assay with CAKI-1 renal, in the assay with EKVX NSCLC, with IGROV1 ovarian, with MDA-MB-231 breast and in the assay on MDA-MB-435 was greater than 100 µM each time. Moreover, the TGI with NCI/ADR-RES ovarian, in the assay on SF-268 CNS, in the assay with SNB-19 CNS and with T-47D breast was greater than 100 µM each time.
On to `C/C(CC(O)(C(F)(F)F)C(F)(F)F)=N/Nc1ccc([N+](=O)[O-])cc1[N+](=O)[O-]`, for which the TGI in the assay with A549 NSCLC is greater than 10 µM; with CAKI-1 renal, greater than 10 µM; with EKVX NSCLC, greater than 10 µM; in the assay with IGROV1 ovarian, greater than 10 µM; in the assay on MDA-MB-231 breast, 6.58 µM; with MDA-MB-435 it was greater than 10 µM. Also, the TGI was greater than 10 µM with NCI/ADR-RES ovarian, greater than 10 µM with SF-268 CNS, greater than 10 µM with SNB-19 CNS and 8.37 µM with T-47D breast.
Consider `O=c1ccc2nc3ccc(O)cc3oc-2c1`, for which the TGI was greater than 100 µM in the assay with A549 NSCLC; greater than 100 µM in the assay with CAKI-1 renal; greater than 100 µM in the assay with EKVX NSCLC; greater than 100 µM in the assay with IGROV1 ovarian; greater than 100 µM in the assay on MDA-MB-231 breast; 3.23 µM in the assay on MDA-MB-435. Moreover, the TGI in the assay with NCI/ADR-RES ovarian, in the assay with SF-268 CNS, in the assay on SNB-19 CNS and in the assay on T-47D breast was greater than 100 µM each time.
As to `Cn1c2c(c3c(=O)[nH]ncc31)CCCc1ccccc1-2`, the TGI was greater than 100 µM in the assay on A549 NSCLC; 69.9 µM in the assay with CAKI-1 renal; greater than 100 µM with EKVX NSCLC; 61.6 µM with IGROV1 ovarian; greater than 100 µM in the assay on MDA-MB-231 breast; 50.4 µM with MDA-MB-435. The TGI in the assay on NCI/ADR-RES ovarian was greater than 100 µM; in the assay with SF-268 CNS it was 98.8 µM; with SNB-19 CNS, greater than 100 µM; in the assay with T-47D breast it was greater than 100 µM.
For the molecule `S=c1sscc1N1CCSc2ssc(=S)c21`, the TGI with A549 NSCLC was greater than 100 µM; in the assay with CAKI-1 renal, greater than 100 µM; in the assay with EKVX NSCLC, 49.8 µM; in the assay on IGROV1 ovarian, greater than 100 µM; with MDA-MB-231 breast, greater than 100 µM; in the assay on MDA-MB-435, greater than 100 µM. Further, the TGI with NCI/ADR-RES ovarian is greater than 100 µM; in the assay with SF-268 CNS, greater than 100 µM; in the assay on SNB-19 CNS it was 63.5 µM; in the assay on T-47D breast it was greater than 100 µM.
For the molecule `CCOC(=O)/C=C1\C[C@H](NC(=O)OCc2ccccc2)C(=O)N1CC(=O)OCC`, the TGI in the assay on A549 NSCLC, in the assay with CAKI-1 renal, with EKVX NSCLC, with IGROV1 ovarian, with MDA-MB-231 breast and in the assay on MDA-MB-435 was greater than 100 µM throughout. Further, the TGI in the assay with NCI/ADR-RES ovarian, in the assay with SF-268 CNS, in the assay with SNB-19 CNS and in the assay with T-47D breast was greater than 100 µM in each case.
`NC1=CN(Cc2ccccc2)C2=N/C(=C\c3ccco3)C(=O)N12`: the TGI in the assay on A549 NSCLC, in the assay on CAKI-1 renal, in the assay on EKVX NSCLC, with IGROV1 ovarian, with MDA-MB-231 breast and in the assay on MDA-MB-435 was greater than 100 µM throughout. Besides, the TGI in the assay on NCI/ADR-RES ovarian, in the assay on SF-268 CNS, with SNB-19 CNS and in the assay with T-47D breast was greater than 100 µM in each case.
With `COC(=O)c1ccccc1Nc1ccccc1C(=O)OC`, the TGI in the assay with A549 NSCLC, in the assay with CAKI-1 renal, in the assay on EKVX NSCLC, in the assay on IGROV1 ovarian, in the assay on MDA-MB-231 breast and in the assay on MDA-MB-435 was greater than 100 µM throughout. For the same molecule, the TGI with NCI/ADR-RES ovarian, with SF-268 CNS, in the assay with SNB-19 CNS and with T-47D breast was greater than 100 µM in each case.
In the case of `CC(C)C(=O)CP(=O)(O)O`, the TGI was greater than 100 µM in the assay on A549 NSCLC; greater than 100 µM in the assay with CAKI-1 renal; 46.1 µM in the assay with EKVX NSCLC; greater than 100 µM in the assay on IGROV1 ovarian; greater than 100 µM with MDA-MB-231 breast; greater than 100 µM in the assay with MDA-MB-435. Also, the TGI in the assay with NCI/ADR-RES ovarian, in the assay with SF-268 CNS, with SNB-19 CNS and in the assay with T-47D breast was greater than 100 µM each time.
With `CC(=O)Nc1ccc2c3c(cc(O)c2c1)N(C(=O)CCCCCC(=O)Nc1ccc2c4c(cc(O)c2c1)N(C(=O)OC(C)(C)C)CC4CCl)CC3CCl` (stereo not given), the TGI in the assay with A549 NSCLC is greater than 55 µM; in the assay on CAKI-1 renal it was greater than 100 µM; with EKVX NSCLC, greater than 100 µM; in the assay on IGROV1 ovarian it was 28.5 µM; with MDA-MB-231 breast, 18.5 µM; with MDA-MB-435 it was 3.29 µM. Further, the TGI in the assay with NCI/ADR-RES ovarian is greater than 100 µM; in the assay on SF-268 CNS it was 6.87 µM; in the assay with SNB-19 CNS, greater than 35 µM; with T-47D breast, 7.82 µM.
